In ChEMBL document CHEMBL5723584 (2023):

Columns and labels:
Details in all cases: Compound concentration 1.0 uM
[1] = biological target: PI3K p110 beta/p85 alpha (Homo sapiens) (UniProt P27986+P42338); test: activity of PI3 Kinase (p110beta/p85alpha)(h) at 1.0 µM in the Eurofins Kinase panel; type: protein-complex assay
[2] = biological target: Mitogen-activated protein kinase kinase kinase 2 (Homo sapiens) (UniProt Q9Y2U5); test: activity of MEKK2(h) at 1.0 µM in the Eurofins Kinase panel
[3] = biological target: Platelet-derived growth factor receptor alpha (Homo sapiens) (UniProt P16234); test: activity of PDGFRalpha(h) at 1.0 µM in the Eurofins Kinase panel
[4] = biological target: Serine/threonine-protein kinase TAO1 (Homo sapiens) (UniProt Q7L7X3); test: activity of TAO1(h) at 1.0 µM in the Eurofins Kinase panel
[5] = biological target: Receptor-interacting serine/threonine-protein kinase 2 (Homo sapiens) (UniProt O43353); test: activity of RIPK2(h) at 1.0 µM in the Eurofins Kinase panel
[6] = biological target: Macrophage colony-stimulating factor 1 receptor (Homo sapiens) (UniProt P07333); test: activity of Fms(h) at 1.0 µM in the Eurofins Kinase panel
[7] = biological target: MAP kinase-activated protein kinase 3 (Homo sapiens) (UniProt Q16644); test: activity of MAPKAP-K3(h) at 1.0 µM in the Eurofins Kinase panel
[8] = biological target: Mitogen-activated protein kinase 12 (Homo sapiens) (UniProt P53778); test: activity of SAPK3(h) at 1.0 µM in the Eurofins Kinase panel
Mitogen-activated protein kinase 12 (Homo sapiens), sequence (P53778 whole entry): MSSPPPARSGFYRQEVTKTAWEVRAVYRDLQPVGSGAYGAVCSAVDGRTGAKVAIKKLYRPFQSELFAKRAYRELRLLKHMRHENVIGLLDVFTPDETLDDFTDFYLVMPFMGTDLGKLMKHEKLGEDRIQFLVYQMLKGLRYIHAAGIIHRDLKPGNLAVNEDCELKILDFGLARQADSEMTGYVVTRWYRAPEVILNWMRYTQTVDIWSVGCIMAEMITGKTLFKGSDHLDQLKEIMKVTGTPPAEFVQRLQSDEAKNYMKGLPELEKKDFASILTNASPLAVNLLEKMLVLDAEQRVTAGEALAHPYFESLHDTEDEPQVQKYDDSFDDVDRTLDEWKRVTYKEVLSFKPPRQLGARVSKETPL

[9] = biological target: Ribosomal protein S6 kinase alpha-3 (Homo sapiens) (UniProt P51812); test: activity of Rsk2(h) at 1.0 µM in the Eurofins Kinase panel
[10] = biological target: MAPK/MAK/MRK overlapping kinase (Homo sapiens) (UniProt Q9UQ07); test: activity of MOK(h) at 1.0 µM in the Eurofins Kinase panel
[11] = biological target: Serine/threonine-protein kinase DCLK1 (Homo sapiens) (UniProt O15075); test: activity of DCAMKL1(h) at 1.0 µM in the Eurofins Kinase panel
[12] = biological target: Mitogen-activated protein kinase 1 (Homo sapiens) (UniProt P28482); test: activity of MAPK1(h) at 1.0 µM in the Eurofins Kinase panel
Mitogen-activated protein kinase 1 (Homo sapiens), sequence (P28482 whole entry): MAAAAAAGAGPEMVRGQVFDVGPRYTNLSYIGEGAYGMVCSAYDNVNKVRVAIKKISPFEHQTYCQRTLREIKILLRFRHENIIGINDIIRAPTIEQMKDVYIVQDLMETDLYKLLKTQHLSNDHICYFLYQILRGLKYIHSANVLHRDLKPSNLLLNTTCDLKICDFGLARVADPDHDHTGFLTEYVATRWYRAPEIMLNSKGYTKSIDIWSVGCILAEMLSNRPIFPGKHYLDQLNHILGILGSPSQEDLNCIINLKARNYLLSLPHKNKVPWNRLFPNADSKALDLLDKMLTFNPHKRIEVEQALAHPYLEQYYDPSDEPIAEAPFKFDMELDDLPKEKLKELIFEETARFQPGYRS

[13] = biological target: Dual specificity protein kinase CLK4 (Homo sapiens) (UniProt Q9HAZ1); test: activity of CLK4(h) at 1.0 µM in the Eurofins Kinase panel
Dual specificity protein kinase CLK4 (Homo sapiens), sequence (Q9HAZ1 whole entry, looked up): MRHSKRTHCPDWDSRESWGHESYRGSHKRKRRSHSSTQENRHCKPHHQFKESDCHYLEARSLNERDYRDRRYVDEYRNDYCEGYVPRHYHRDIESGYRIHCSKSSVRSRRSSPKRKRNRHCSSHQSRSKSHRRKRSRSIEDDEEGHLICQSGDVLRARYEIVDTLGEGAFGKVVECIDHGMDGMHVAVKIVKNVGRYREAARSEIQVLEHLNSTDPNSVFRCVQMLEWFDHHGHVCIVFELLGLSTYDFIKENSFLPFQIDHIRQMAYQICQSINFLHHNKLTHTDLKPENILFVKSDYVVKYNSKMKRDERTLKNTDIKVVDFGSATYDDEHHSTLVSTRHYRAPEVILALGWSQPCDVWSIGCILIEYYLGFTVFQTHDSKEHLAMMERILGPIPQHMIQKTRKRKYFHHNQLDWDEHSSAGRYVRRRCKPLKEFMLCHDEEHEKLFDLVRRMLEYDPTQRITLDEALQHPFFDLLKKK

[14] = biological target: Serine/threonine-protein kinase LATS2 (Homo sapiens) (UniProt Q9NRM7); test: activity of LATS2(h) at 1.0 µM in the Eurofins Kinase panel
[15] = biological target: Tyrosine-protein kinase ABL1 (Homo sapiens) (UniProt P00519); test: activity of Abl(h) at 1.0 µM in the Eurofins Kinase panel
Tyrosine-protein kinase ABL1 (Homo sapiens), sequence (P00519 whole entry): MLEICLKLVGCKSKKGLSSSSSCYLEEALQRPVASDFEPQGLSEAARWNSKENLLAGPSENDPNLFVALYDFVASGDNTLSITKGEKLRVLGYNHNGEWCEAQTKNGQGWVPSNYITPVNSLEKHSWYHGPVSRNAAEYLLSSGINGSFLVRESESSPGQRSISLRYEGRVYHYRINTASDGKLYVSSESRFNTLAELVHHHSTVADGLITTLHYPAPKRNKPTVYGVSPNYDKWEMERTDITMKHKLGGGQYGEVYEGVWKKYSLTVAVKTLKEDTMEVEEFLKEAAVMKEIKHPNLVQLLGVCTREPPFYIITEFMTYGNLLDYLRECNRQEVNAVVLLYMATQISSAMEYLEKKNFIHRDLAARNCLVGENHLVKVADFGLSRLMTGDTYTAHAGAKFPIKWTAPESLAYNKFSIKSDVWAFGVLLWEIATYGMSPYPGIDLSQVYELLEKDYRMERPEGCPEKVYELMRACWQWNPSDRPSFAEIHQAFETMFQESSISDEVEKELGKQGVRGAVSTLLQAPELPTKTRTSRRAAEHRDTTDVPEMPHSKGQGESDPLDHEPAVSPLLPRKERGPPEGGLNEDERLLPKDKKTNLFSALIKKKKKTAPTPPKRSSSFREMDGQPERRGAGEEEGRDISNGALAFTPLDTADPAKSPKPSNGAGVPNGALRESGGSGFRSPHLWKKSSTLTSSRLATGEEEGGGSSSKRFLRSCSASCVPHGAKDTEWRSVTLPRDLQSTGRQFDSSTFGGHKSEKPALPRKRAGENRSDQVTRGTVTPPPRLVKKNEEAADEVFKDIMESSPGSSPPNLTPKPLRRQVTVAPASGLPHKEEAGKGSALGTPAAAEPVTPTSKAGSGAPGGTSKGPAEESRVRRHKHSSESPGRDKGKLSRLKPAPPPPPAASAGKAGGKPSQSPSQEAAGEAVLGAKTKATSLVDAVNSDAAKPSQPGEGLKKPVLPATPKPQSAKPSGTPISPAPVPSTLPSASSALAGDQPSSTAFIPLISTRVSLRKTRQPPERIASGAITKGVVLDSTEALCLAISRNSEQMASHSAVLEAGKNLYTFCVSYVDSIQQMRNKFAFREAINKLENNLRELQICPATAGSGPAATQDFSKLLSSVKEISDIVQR

[16] = biological target: Receptor-type tyrosine-protein kinase FLT3 (Homo sapiens) (UniProt P36888); test: activity of Flt3(h) at 1.0 µM in the Eurofins Kinase panel
[17] = biological target: Wee1-like protein kinase 2 (Homo sapiens) (UniProt P0C1S8); test: activity of Wee1B(h) at 1.0 µM in the Eurofins Kinase panel
[18] = biological target: Inhibitor of nuclear factor kappa-B kinase subunit beta (Homo sapiens) (UniProt O14920); test: activity of IKKbeta(h) at 1.0 µM in the Eurofins Kinase panel
[19] = biological target: Serine/threonine-protein kinase Sgk3 (Homo sapiens) (UniProt Q96BR1); test: activity of SGK3(h) at 1.0 µM in the Eurofins Kinase panel
[20] = biological target: Ribosomal protein S6 kinase alpha-1 (Homo sapiens) (UniProt Q15418); test: activity of Rsk1(h) at 1.0 µM in the Eurofins Kinase panel
[21] = biological target: Serine/threonine-protein kinase Nek9 (Homo sapiens) (UniProt Q8TD19); test: activity of NEK9(h) at 1.0 µM in the Eurofins Kinase panel
[22] = biological target: Ephrin type-A receptor 3 (Homo sapiens) (UniProt P29320); test: activity of EphA3(h) at 1.0 µM in the Eurofins Kinase panel
[23] = biological target: Calcium/calmodulin-dependent protein kinase type II subunit alpha (Homo sapiens) (UniProt Q9UQM7); test: activity of CaMKIIalpha(h) at 1.0 µM in the Eurofins Kinase panel
[24] = biological target: Testis-specific serine/threonine-protein kinase 4 (Homo sapiens) (UniProt Q6SA08); test: activity of TSSK4(h) at 1.0 µM in the Eurofins Kinase panel
Testis-specific serine/threonine-protein kinase 4 (Homo sapiens), sequence (Q6SA08 whole entry): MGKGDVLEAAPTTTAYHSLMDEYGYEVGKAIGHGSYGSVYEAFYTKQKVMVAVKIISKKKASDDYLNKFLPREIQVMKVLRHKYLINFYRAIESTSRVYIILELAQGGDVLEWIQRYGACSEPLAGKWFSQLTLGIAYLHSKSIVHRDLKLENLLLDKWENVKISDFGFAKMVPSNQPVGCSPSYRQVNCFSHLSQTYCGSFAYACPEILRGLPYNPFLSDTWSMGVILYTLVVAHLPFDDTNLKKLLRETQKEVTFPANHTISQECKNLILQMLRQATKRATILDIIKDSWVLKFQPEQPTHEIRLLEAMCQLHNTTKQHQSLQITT

[25] = biological target: Serine/threonine-protein kinase D3 (Homo sapiens) (UniProt O94806); test: activity of PKD3(h) at 1.0 µM in the Eurofins Kinase panel
[26] = biological target: Macrophage-stimulating protein receptor (Homo sapiens) (UniProt Q04912); test: activity of Ron(h) at 1.0 µM in the Eurofins Kinase panel
[27] = biological target: Rho-associated protein kinase 1 (Homo sapiens) (UniProt Q13464); test: activity of ROCK-I(h) at 1.0 µM in the Eurofins Kinase panel
[28] = biological target: Cyclin-dependent kinase 1/cyclin B (Homo sapiens) (UniProt P06493+P14635+Q8WWL7+O95067); test: activity of CDK1/cyclinB(h) at 1.0 µM in the Eurofins Kinase panel; type: protein-complex assay
[29] = biological target: Protein kinase C epsilon type (Homo sapiens) (UniProt Q02156); test: activity of PKCepsilon(h) at 1.0 µM in the Eurofins Kinase panel
Protein kinase C epsilon type (Homo sapiens), sequence (Q02156 whole entry): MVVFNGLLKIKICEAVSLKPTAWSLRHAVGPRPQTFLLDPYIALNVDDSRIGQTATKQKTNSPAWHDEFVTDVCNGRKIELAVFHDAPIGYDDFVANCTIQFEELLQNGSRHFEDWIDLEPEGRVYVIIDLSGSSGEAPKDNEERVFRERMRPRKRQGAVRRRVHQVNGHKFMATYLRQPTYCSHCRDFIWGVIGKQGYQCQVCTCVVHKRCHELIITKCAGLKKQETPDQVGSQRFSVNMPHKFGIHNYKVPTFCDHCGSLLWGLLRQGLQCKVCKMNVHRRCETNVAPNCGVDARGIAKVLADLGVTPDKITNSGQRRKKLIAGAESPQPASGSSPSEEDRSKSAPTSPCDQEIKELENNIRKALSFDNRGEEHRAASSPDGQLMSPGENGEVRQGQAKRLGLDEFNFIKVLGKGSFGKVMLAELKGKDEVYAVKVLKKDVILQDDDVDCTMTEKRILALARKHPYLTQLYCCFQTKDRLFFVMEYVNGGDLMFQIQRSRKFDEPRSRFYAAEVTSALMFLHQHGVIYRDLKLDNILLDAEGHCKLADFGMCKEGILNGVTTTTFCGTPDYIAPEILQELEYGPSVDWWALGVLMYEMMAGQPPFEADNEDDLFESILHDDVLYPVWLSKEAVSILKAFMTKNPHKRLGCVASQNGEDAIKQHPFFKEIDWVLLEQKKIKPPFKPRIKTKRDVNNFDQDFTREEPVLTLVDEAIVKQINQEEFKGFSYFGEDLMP

[30] = biological target: G protein-coupled receptor kinase 6 (Homo sapiens) (UniProt P43250); test: activity of GRK6(h) at 1.0 µM in the Eurofins Kinase panel
G protein-coupled receptor kinase 6 (Homo sapiens), sequence (P43250 whole entry, looked up): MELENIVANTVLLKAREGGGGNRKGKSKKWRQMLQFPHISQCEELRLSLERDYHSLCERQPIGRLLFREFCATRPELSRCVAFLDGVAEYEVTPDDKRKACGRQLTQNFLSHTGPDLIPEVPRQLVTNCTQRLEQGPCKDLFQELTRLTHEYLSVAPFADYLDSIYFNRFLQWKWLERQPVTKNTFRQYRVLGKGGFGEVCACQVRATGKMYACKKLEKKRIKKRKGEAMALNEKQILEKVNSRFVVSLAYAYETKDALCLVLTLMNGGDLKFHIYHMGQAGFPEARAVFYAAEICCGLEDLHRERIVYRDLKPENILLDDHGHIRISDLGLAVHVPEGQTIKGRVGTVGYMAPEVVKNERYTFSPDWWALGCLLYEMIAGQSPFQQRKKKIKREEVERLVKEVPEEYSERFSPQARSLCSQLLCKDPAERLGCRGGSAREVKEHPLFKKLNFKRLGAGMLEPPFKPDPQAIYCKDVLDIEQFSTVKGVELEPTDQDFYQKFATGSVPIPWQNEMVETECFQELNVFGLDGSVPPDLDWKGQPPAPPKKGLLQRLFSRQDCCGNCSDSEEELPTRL

[31] = biological target: Hepatocyte growth factor receptor (Homo sapiens) (UniProt P08581); test: activity of Met(h) at 1.0 µM in the Eurofins Kinase panel
[32] = biological target: Tyrosine-protein kinase Lck (Homo sapiens) (UniProt P06239); test: activity of Lck(h) activated at 1.0 µM in the Eurofins Kinase panel
[33] = biological target: Serine/threonine-protein kinase SBK1 (Homo sapiens) (UniProt Q52WX2); test: activity of SBK1(h) at 1.0 µM in the Eurofins Kinase panel
[34] = biological target: Casein kinase I isoform gamma-2 (Homo sapiens) (UniProt P78368); test: activity of CK1gamma2(h) at 1.0 µM in the Eurofins Kinase panel
Casein kinase I isoform gamma-2 (Homo sapiens), sequence (P78368 whole entry, looked up, canonical isoform): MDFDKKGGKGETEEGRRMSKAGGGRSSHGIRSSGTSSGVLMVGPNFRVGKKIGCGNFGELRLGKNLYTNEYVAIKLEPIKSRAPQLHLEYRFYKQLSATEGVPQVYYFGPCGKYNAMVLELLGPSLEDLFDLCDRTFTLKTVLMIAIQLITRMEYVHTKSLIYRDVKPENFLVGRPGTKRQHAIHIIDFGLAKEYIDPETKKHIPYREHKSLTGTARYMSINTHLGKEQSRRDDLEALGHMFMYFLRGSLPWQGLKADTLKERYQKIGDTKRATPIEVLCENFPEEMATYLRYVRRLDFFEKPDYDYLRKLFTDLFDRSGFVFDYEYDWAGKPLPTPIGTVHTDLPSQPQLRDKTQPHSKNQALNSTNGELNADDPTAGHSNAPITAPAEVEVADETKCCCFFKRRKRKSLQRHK

[35] = biological target: Mitogen-activated protein kinase kinase kinase 3 (Homo sapiens) (UniProt Q99759); test: activity of MEKK3(h) at 1.0 µM in the Eurofins Kinase panel
[36] = biological target: Mitogen-activated protein kinase kinase kinase kinase 2 (Homo sapiens) (UniProt Q12851); test: activity of GCK(h) at 1.0 µM in the Eurofins Kinase panel
[37] = biological target: 5'-AMP-activated protein kinase catalytic subunit alpha-1 (Homo sapiens) (UniProt Q13131); test: activity of AMPKalpha1(h) at 1.0 µM in the Eurofins Kinase panel
[38] = biological target: Mitogen-activated protein kinase kinase kinase kinase 5 (Homo sapiens) (UniProt Q9Y4K4); test: activity of MAP4K5(h) at 1.0 µM in the Eurofins Kinase panel

Mitogen-activated protein kinase kinase kinase 2 (Homo sapiens), sequence (Q9Y2U5 whole entry): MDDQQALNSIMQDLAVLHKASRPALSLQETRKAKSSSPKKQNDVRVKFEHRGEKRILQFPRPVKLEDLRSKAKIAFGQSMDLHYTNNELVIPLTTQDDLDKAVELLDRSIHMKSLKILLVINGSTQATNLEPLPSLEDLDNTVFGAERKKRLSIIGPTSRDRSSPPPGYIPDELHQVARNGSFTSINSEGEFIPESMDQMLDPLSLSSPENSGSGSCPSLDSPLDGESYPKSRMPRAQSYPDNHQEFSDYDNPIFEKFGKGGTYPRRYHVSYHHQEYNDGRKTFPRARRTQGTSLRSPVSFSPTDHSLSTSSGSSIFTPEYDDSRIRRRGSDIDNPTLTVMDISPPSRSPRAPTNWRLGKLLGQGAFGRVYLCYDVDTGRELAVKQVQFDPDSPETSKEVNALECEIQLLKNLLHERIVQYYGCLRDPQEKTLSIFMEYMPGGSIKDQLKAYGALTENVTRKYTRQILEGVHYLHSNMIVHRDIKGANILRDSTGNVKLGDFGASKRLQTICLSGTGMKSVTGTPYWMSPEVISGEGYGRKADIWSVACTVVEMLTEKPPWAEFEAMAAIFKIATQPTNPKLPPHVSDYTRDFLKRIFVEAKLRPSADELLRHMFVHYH

## Cc1cc2c(-c3ccc(NC(=O)[C@H](N)CC(C)(C)C)cc3C)ccnc2[nH]1
[1]
  activity: 102%
[2]
  activity: 122%
[3]
  activity: 116%
[4]
  activity: 83%
[5]
  activity: 97%
[6]
  activity: 115%
[7]
  activity: 125%
[8]
  activity: 113%
[9]
  activity: 88%
[10]
  activity: 90%
[11]
  activity: 95%
[12]
  activity: 95%
[13]
  activity: 85%
[14]
  activity: 102%
[15]
  activity: 99%
[16]
  activity: 84%
[17]
  activity: 88%
[18]
  activity: 99%
[19]
  activity: 102%
[20]
  activity: 99%
[21]
  activity: 79%
[22]
  activity: 79%
[23]
  activity: 88%
[24]
  activity: 117%
[25]
  activity: 97%
[26]
  activity: 111%
[27]
  activity: 96%
[28]
  activity: 94%
[29]
  activity: 97%
[30]
  activity: 95%
[31]
  activity: 90%
[32]
  activity: 119%
[33]
  activity: 97%
[34]
  activity: 97%
[35]
  activity: 107%
[36]
  activity: 118%
[37]
  activity: 120%
[38]
  activity: 92%
